Results from ChEMBL document CHEMBL1201862, “PubChem BioAssay data set” (2004).
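Protocol summary: plate cells (96-well), add compound at 5 concentrations, incubate 48 h, interpolate endpoints linearly. GI50 = concentration required for 50% inhibition of growth.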 Active and inactive are the calls of the source. Rule as the data show it: active = GI50 up to about 1.1 µM and inactive = higher.

Experiments:
Experiment in all cases: NCI-60 cell line screen, 48 h
MDA-MB-231 = system: MDA-MB-231
HCT-15 = system: HCT-15
NCI-H226 = system: NCI-H226
SR = system: SR
NCI/ADR-RES = system: NCI/ADR-RES
UACC-62 = system: UACC-62
A549 = system: A549
K562 = system: K562
DU-145 = system: DU-145
SF-539 = system: SF-539
MOLT-4 = system: MOLT-4
HL-60 = system: HL-60
OVCAR-4 = system: OVCAR-4
PC-3 = system: PC-3

Compound	GI50 (MDA-MB-231)	GI50 (HCT-15) [µM]	GI50 (NCI-H226)	GI50 (SR)	GI50 (NCI/ADR-RES)	GI50 (UACC-62)	GI50 (A549)	GI50 (K562)	GI50 (DU-145)	GI50 (SF-539)	GI50 (MOLT-4)	GI50 (HL-60)	GI50 (OVCAR-4)	GI50 (PC-3)
O=C1c2ccccc2C(=O)c2c(OCC3CO3)ccc(OCC3CO3)c21 (stereo not given)	12.5 µM (inactive)	1.74	12.4 µM (inactive)	0.113 µM (active)	2.21 µM (inactive)	2.1 µM (inactive)	3.46 µM (inactive)	0.982 µM (active)	3.18 µM (inactive)	4.15 µM (inactive)	0.0653 µM (active)	0.118 µM (active)	6.52 µM (inactive)	4.42 µM (inactive)
COc1ccc2nc(-c3ccccc3)cc(OCC(=O)O)c2c1	> 100 µM (inactive)	> 100	> 100 µM (inactive)	> 100 µM (inactive)	> 100 µM (inactive)	> 100 µM (inactive)	> 100 µM (inactive)	> 100 µM (inactive)	> 100 µM (inactive)	> 100 µM (inactive)	> 100 µM (inactive)	> 100 µM (inactive)	–	> 100 µM (inactive)
O=C1N[C@@H](c2c[nH]c3ccc(Br)cc23)C(=O)N[C@H]1c1c[nH]c2ccc(Br)cc12	8.87 µM (inactive)	14.9	10.8 µM (inactive)	4.72 µM (inactive)	31.4 µM (inactive)	7.26 µM (inactive)	13.8 µM (inactive)	4.47 µM (inactive)	13.8 µM (inactive)	5.21 µM (inactive)	3.53 µM (inactive)	6.9 µM (inactive)	5.73 µM (inactive)	3.6 µM (inactive)
CCCCCCCC/C=C\CCCCCCC/C=C1\C[C@](/C=C/C(=O)OC)(CO)OC1=O	1.94 µM (inactive)	2.75	2.61 µM (inactive)	2.74 µM (inactive)	3.47 µM (inactive)	6.85 µM (inactive)	4.3 µM (inactive)	0.662 µM (active)	10.8 µM (inactive)	1.78 µM (inactive)	0.611 µM (active)	2.15 µM (inactive)	3.2 µM (inactive)	1.79 µM (inactive)
CO[C@@H]1C[C@H]2[C@@H]3CC[C@H]([C@H](C)COC(C)=O)[C@@]3(C)CC[C@@H]2[C@@]2(C)CC[C@H]3C[C@]312	> 100 µM (inactive)	> 100	> 100 µM (inactive)	> 100 µM (inactive)	> 100 µM (inactive)	–	> 100 µM (inactive)	63.1 µM (inactive)	> 100 µM (inactive)	> 100 µM (inactive)	> 100 µM (inactive)	> 100 µM (inactive)	> 100 µM (inactive)	> 100 µM (inactive)
Cc1cc(C)c2c(=O)n(CN3CCC(C#N)(c4ccccc4)CC3)sc2n1	> 100 µM (inactive)	39.1	> 100 µM (inactive)	49.9 µM (inactive)	51.1 µM (inactive)	> 100 µM (inactive)	97.9 µM (inactive)	54 µM (inactive)	> 100 µM (inactive)	31.3 µM (inactive)	49.4 µM (inactive)	18.5 µM (inactive)	30.3 µM (inactive)	76.7 µM (inactive)
COC(=O)c1ccc(C)cc1CC1Cc2cc(C)ccc2C1=O (stereo not given)	> 100 µM (inactive)	> 100	> 100 µM (inactive)	> 100 µM (inactive)	> 100 µM (inactive)	> 100 µM (inactive)	> 100 µM (inactive)	> 100 µM (inactive)	> 10 µM (inactive)	> 100 µM (inactive)	> 100 µM (inactive)	> 100 µM (inactive)	> 100 µM (inactive)	> 100 µM (inactive)
CC(CN(C)C)C(O)(c1ccccc1)c1ccccc1 (stereo not given)	> 100 µM (inactive)	> 100	> 100 µM (inactive)	> 100 µM (inactive)	> 100 µM (inactive)	> 100 µM (inactive)	> 100 µM (inactive)	> 100 µM (inactive)	> 100 µM (inactive)	> 100 µM (inactive)	> 100 µM (inactive)	> 100 µM (inactive)	> 100 µM (inactive)	> 100 µM (inactive)
